From the NIST ThermoML archive (doi:10.1016/j.fluid.2014.09.014)

Test: refractive index (other wavelength) (dimensionless); xn = mol fraction of the nth substance listed
Details: 101 kPa, Liquid, Standard Abbe refractometry

CC(C)OC(C)C [diisopropyl ether] + CC(C)O
Details | refractive index
313.15 K, Wavelength=644 nm, x1 = 0.9547 | 1.35601
313.15 K, Wavelength=644 nm, x1 = 0.973 | 1.3557
313.15 K, Wavelength=644 nm, x1 = 0.9771 | 1.35587
313.15 K, Wavelength=644 nm, x1 = 1 | 1.35543
313.15 K, Wavelength=706.5 nm, x1 = 0.0277 | 1.36533
313.15 K, Wavelength=706.5 nm, x1 = 0.0507 | 1.36524
313.15 K, Wavelength=706.5 nm, x1 = 0.051 | 1.3652
313.15 K, Wavelength=706.5 nm, x1 = 0.0717 | 1.36485
313.15 K, Wavelength=706.5 nm, x1 = 0.1528 | 1.36418
313.15 K, Wavelength=706.5 nm, x1 = 0.1553 | 1.36418
313.15 K, Wavelength=706.5 nm, x1 = 0.1938 | 1.36394
313.15 K, Wavelength=706.5 nm, x1 = 0.2029 | 1.36337
313.15 K, Wavelength=706.5 nm, x1 = 0.245 | 1.36294
313.15 K, Wavelength=706.5 nm, x1 = 0.297 | 1.36209
313.15 K, Wavelength=706.5 nm, x1 = 0.2973 | 1.3623
313.15 K, Wavelength=706.5 nm, x1 = 0.3068 | 1.36204
313.15 K, Wavelength=706.5 nm, x1 = 0.398 | 1.36071
313.15 K, Wavelength=706.5 nm, x1 = 0.4609 | 1.35999
313.15 K, Wavelength=706.5 nm, x1 = 0.5434 | 1.35908
313.15 K, Wavelength=706.5 nm, x1 = 0.6032 | 1.35834
313.15 K, Wavelength=706.5 nm, x1 = 0.6371 | 1.358
313.15 K, Wavelength=706.5 nm, x1 = 0.701 | 1.35723
313.15 K, Wavelength=706.5 nm, x1 = 0.754 | 1.35681
313.15 K, Wavelength=706.5 nm, x1 = 0.791 | 1.35641
313.15 K, Wavelength=706.5 nm, x1 = 0.8296 | 1.35602
313.15 K, Wavelength=706.5 nm, x1 = 0.8864 | 1.35589
313.15 K, Wavelength=706.5 nm, x1 = 0.8903 | 1.35534
313.15 K, Wavelength=706.5 nm, x1 = 0.9113 | 1.3551
313.15 K, Wavelength=706.5 nm, x1 = 0.9547 | 1.3546
313.15 K, Wavelength=706.5 nm, x1 = 0.973 | 1.35426
313.15 K, Wavelength=706.5 nm, x1 = 0.9771 | 1.35416
313.15 K, Wavelength=706.5 nm, x1 = 1 | 1.35401
318.15 K, Wavelength=404.7 nm, x1 = 0.0277 | 1.37668
318.15 K, Wavelength=404.7 nm, x1 = 0.0507 | 1.37662
318.15 K, Wavelength=404.7 nm, x1 = 0.051 | 1.37654
318.15 K, Wavelength=404.7 nm, x1 = 0.0717 | 1.37616
318.15 K, Wavelength=404.7 nm, x1 = 0.1528 | 1.3755
318.15 K, Wavelength=404.7 nm, x1 = 0.1553 | 1.3755
318.15 K, Wavelength=404.7 nm, x1 = 0.1938 | 1.37525
318.15 K, Wavelength=404.7 nm, x1 = 0.2029 | 1.37457
318.15 K, Wavelength=404.7 nm, x1 = 0.245 | 1.374
318.15 K, Wavelength=404.7 nm, x1 = 0.297 | 1.37308
318.15 K, Wavelength=404.7 nm, x1 = 0.2973 | 1.37334
318.15 K, Wavelength=404.7 nm, x1 = 0.3068 | 1.37306
318.15 K, Wavelength=404.7 nm, x1 = 0.398 | 1.37184
318.15 K, Wavelength=404.7 nm, x1 = 0.4609 | 1.37087
318.15 K, Wavelength=404.7 nm, x1 = 0.5434 | 1.36988
318.15 K, Wavelength=404.7 nm, x1 = 0.6032 | 1.36911
318.15 K, Wavelength=404.7 nm, x1 = 0.6371 | 1.36872
318.15 K, Wavelength=404.7 nm, x1 = 0.701 | 1.36791
318.15 K, Wavelength=404.7 nm, x1 = 0.754 | 1.36743
318.15 K, Wavelength=404.7 nm, x1 = 0.791 | 1.36699
318.15 K, Wavelength=404.7 nm, x1 = 0.8296 | 1.36655
318.15 K, Wavelength=404.7 nm, x1 = 0.8864 | 1.36644
318.15 K, Wavelength=404.7 nm, x1 = 0.8903 | 1.36584
318.15 K, Wavelength=404.7 nm, x1 = 0.9113 | 1.36554
318.15 K, Wavelength=404.7 nm, x1 = 0.9547 | 1.3651
318.15 K, Wavelength=404.7 nm, x1 = 0.973 | 1.3647
318.15 K, Wavelength=404.7 nm, x1 = 0.9771 | 1.36468
318.15 K, Wavelength=404.7 nm, x1 = 1 | 1.36447
318.15 K, Wavelength=435.8 nm, x1 = 0.0277 | 1.37373
318.15 K, Wavelength=435.8 nm, x1 = 0.0507 | 1.37367
318.15 K, Wavelength=435.8 nm, x1 = 0.051 | 1.3736
318.15 K, Wavelength=435.8 nm, x1 = 0.0717 | 1.37322
318.15 K, Wavelength=435.8 nm, x1 = 0.1528 | 1.37255
318.15 K, Wavelength=435.8 nm, x1 = 0.1553 | 1.37255
318.15 K, Wavelength=435.8 nm, x1 = 0.1938 | 1.37231
318.15 K, Wavelength=435.8 nm, x1 = 0.2029 | 1.37164
318.15 K, Wavelength=435.8 nm, x1 = 0.245 | 1.37107
318.15 K, Wavelength=435.8 nm, x1 = 0.297 | 1.37014
318.15 K, Wavelength=435.8 nm, x1 = 0.2973 | 1.3704
318.15 K, Wavelength=435.8 nm, x1 = 0.3068 | 1.37013
318.15 K, Wavelength=435.8 nm, x1 = 0.398 | 1.36891
318.15 K, Wavelength=435.8 nm, x1 = 0.4609 | 1.36796
318.15 K, Wavelength=435.8 nm, x1 = 0.5434 | 1.36693
318.15 K, Wavelength=435.8 nm, x1 = 0.6032 | 1.36618
318.15 K, Wavelength=435.8 nm, x1 = 0.6371 | 1.36578
318.15 K, Wavelength=435.8 nm, x1 = 0.701 | 1.36501
318.15 K, Wavelength=435.8 nm, x1 = 0.754 | 1.36453
318.15 K, Wavelength=435.8 nm, x1 = 0.791 | 1.36408
318.15 K, Wavelength=435.8 nm, x1 = 0.8296 | 1.36364
318.15 K, Wavelength=435.8 nm, x1 = 0.8864 | 1.36355
318.15 K, Wavelength=435.8 nm, x1 = 0.8903 | 1.36294
318.15 K, Wavelength=435.8 nm, x1 = 0.9113 | 1.36264
318.15 K, Wavelength=435.8 nm, x1 = 0.9547 | 1.36222
318.15 K, Wavelength=435.8 nm, x1 = 0.973 | 1.36182
318.15 K, Wavelength=435.8 nm, x1 = 0.9771 | 1.36178
318.15 K, Wavelength=435.8 nm, x1 = 1 | 1.36157
318.15 K, Wavelength=486.1 nm, x1 = 0.0277 | 1.37036
318.15 K, Wavelength=486.1 nm, x1 = 0.0507 | 1.3703
318.15 K, Wavelength=486.1 nm, x1 = 0.051 | 1.37024
318.15 K, Wavelength=486.1 nm, x1 = 0.0717 | 1.36986
318.15 K, Wavelength=486.1 nm, x1 = 0.1528 | 1.36919
318.15 K, Wavelength=486.1 nm, x1 = 0.1553 | 1.36919
318.15 K, Wavelength=486.1 nm, x1 = 0.1938 | 1.36894
